Test results: patent US20240174618A1, “SUBSTITUTED (2-HETEROARYLOXYPHENYL)SULFONATES, SALTS THEREOF AND THEIR USE AS HERBICIDAL AGENTS” (Bayer Aktiengesellschaft, priority 2021, published 2024)

Legend:
Type in all cases: in vivo
Setaria viridis (SETVI) [1] = assay: E. Herbicidal post-emergence efficacy, SETVI; details: application rate 320 g/ha
Protocol: (§1) Seeds of monocotyledonous and dicotyledonous weeds and crop plants were placed in sandy loam in plastic or organic planting pots, covered with soil and cultivated in a greenhouse under controlled growth conditions. 2 to 3 weeks after sowing, the test plants were treated at the one-leaf stage. The compounds of the invention, formulated in the form of wettable powders (WP) or as emulsion concentrates (EC), were then sprayed onto the green parts of the plants as aqueous suspension or emulsion with addition of 0.5% additive at a water application rate of 600 l/ha (converted). After the test plants had been kept in the greenhouse under optimum growth conditions for about 3 weeks, the activity of the preparations was rated visually in comparison to untreated controls.
(§2) For example, • 100% efficacy=plants have died, • 0% action=like untreated control plants.
(§3) Tables E1a to E12b below show the effects of selected compounds of the general formula (I) according to table 1 on various harmful plants at an application rate corresponding to 320 g/ha or less, which were obtained by the experimental procedure mentioned above.

Lolium rigidum (LOLRI) [2] = assay: E. Herbicidal post-emergence efficacy, LOLRI; details: application rate 320 g/ha
Protocol: as §1, §2, §3

Setaria viridis (SETVI) [3] = assay: C. Herbicidal pre-emergence efficacy, SETVI; details: scored after about 3 weeks
Text: (§4) Seeds of monocotyledonous and dicotyledonous weed plants and crop plants were placed in plastic or organic planting pots and covered with soil. The compounds of the invention, formulated in the form of wettable powders (WP) or as emulsion concentrates (EC), were then applied to the surface of the covering soil as aqueous suspension or emulsion with addition of 0.5% additive at a water application rate equivalent to 600 l/ha (converted). After the treatment, the pots were placed in a greenhouse and kept under good growth conditions for the test plants. After about 3 weeks, the efficacy of the preparations was scored visually in comparison with untreated controls as percentages. For example, • 100% efficacy=plants have died, • 0% efficacy=like untreated control plants.
(§5) Tables C1a to C14b below show the effects of selected compounds of the general formula (I) according to table 1 on various harmful plants at an application rate corresponding to 320 g/ha or less, which were obtained by the experimental procedure mentioned above.

Veronica persica (VERPE) [4] = assay: E. Herbicidal post-emergence efficacy, VERPE
Protocol: as §1, §2, §3

Viola tricolor (VIOTR) [5] = assay: E. Herbicidal post-emergence efficacy, VIOTR
Protocol: as §1, §2, §3

Zea mays (ZEAMX) [6] = assay: F. Post-emergence effect on useful plants, ZEAMX; details: useful plant, application rate 80 g/ha
Protocol: as §1, §2
(§6) Tables F1a to F4 below show the effects of selected compounds of the general formula (I) according to table 1 on various useful plants at an application rate corresponding to 320 g/ha or less, which were obtained by the experimental procedure mentioned above.

[7] = test system: Alopecurus myosuroides (ALOMY); assay: C. Herbicidal pre-emergence efficacy, ALOMY; details: 320 g/ha, scored after about 3 weeks
Text: as §4, §5

[8] = test system: Echinochloa crus-galli (ECHCG); assay: E. Herbicidal post-emergence efficacy, ECHCG
Protocol: as §1, §2, §3

[9] = test system: Echinochloa crus-galli (ECHCG); assay: C. Herbicidal pre-emergence efficacy, ECHCG; details: scored after about 3 weeks
Text: as §4, §5

[10] = test system: Amaranthus retroflexus (AMARE); assay: C. Herbicidal pre-emergence efficacy, AMARE; details: scored after about 3 weeks
Text: as §4, §5

[11] = test system: Amaranthus retroflexus (AMARE); assay: E. Herbicidal post-emergence efficacy, AMARE
Protocol: as §1, §2, §3

[12] = test system: Alopecurus myosuroides (ALOMY); assay: E. Herbicidal post-emergence efficacy, ALOMY; details: application rate 320 g/ha
Protocol: as §1, §2, §3

Oryza sativa (ORYSA) = assay: D. Pre-emergence effect on useful plants, ORYSA; details: useful plant, application rate 80 g/ha
Text: as §4
(§7) Tables D1a to D5b below show the effects of selected compounds of the general formula (I) according to table 1 on various useful plants at an application rate corresponding to 320 g/ha or less, which were obtained by the experimental procedure mentioned above.

Veronica persica (VERPE) [13] = assay: C. Herbicidal pre-emergence efficacy, VERPE; details: scored after about 3 weeks
Text: as §4, §5

[14] = test system: Triticum aestivum (TRZAS); assay: F. Post-emergence effect on useful plants, TRZAS; details: useful plant, application rate 80 g/ha
Protocol: as §1, §2, §6

Avena fatua (AVEFA) = assay: C. Herbicidal pre-emergence efficacy, AVEFA; details: 320 g/ha, scored after about 3 weeks
Text: as §4, §5

[15] = test system: Matricaria inodora (MATIN); assay: C. Herbicidal pre-emergence efficacy, MATIN; details: 320 g/ha, scored after about 3 weeks
Text: as §4, §5

[16] = test system: Abutilon theophrasti (ABUTH); assay: C. Herbicidal pre-emergence efficacy, ABUTH; details: scored after about 3 weeks
Text: as §4, §5

Glycine max (GLXMA) = assay: D. Pre-emergence effect on useful plants, GLXMA; details: useful plant
Text: as §4, §7

[17] = test system: Polygonum convolvulus (POLCO); assay: C. Herbicidal pre-emergence efficacy, POLCO; details: scored after about 3 weeks
Text: as §4, §5

[18] = test system: Abutilon theophrasti (ABUTH); assay: E. Herbicidal post-emergence efficacy, ABUTH
Protocol: as §1, §2, §3

Lolium rigidum (LOLRI) [19] = assay: C. Herbicidal pre-emergence efficacy, LOLRI; details: 320 g/ha, scored after about 3 weeks
Text: as §4, §5

Viola tricolor (VIOTR) [20] = assay: C. Herbicidal pre-emergence efficacy, VIOTR
Text: as §4, §5

[21] = test system: Polygonum convolvulus (POLCO); assay: E. Herbicidal post-emergence efficacy, POLCO; details: application rate 320 g/ha
Protocol: as §1, §2, §3

Brassica napus (BRSNW) = assay: D. Pre-emergence effect on useful plants, BRSNW; details: useful plant
Text: as §4, §7

Kochia scoparia (KCHSC) [22] = assay: C. Herbicidal pre-emergence efficacy, KCHSC; details: application rate 320 g/ha
Text: as §4, §5

Zea mays (ZEAMX) [23] = assay: D. Pre-emergence effect on useful plants, ZEAMX; details: useful plant, application rate 80 g/ha
Text: as §4, §7

[24] = test system: Digitaria sanguinalis (DIGSA); assay: C. Herbicidal pre-emergence efficacy, DIGSA; details: 320 g/ha, scored after about 3 weeks
Text: as §4, §5

Kochia scoparia (KCHSC) [25] = assay: E. Herbicidal post-emergence efficacy, KCHSC
Protocol: as §1, §2, §3

[26] = test system: Triticum aestivum (TRZAS); assay: D. Pre-emergence effect on useful plants, TRZAS; details: useful plant
Text: as §4, §7

[27] = test system: Pharbitis purpurea (PHBPU); assay: E. Herbicidal post-emergence efficacy, PHBPU; details: application rate 320 g/ha
Protocol: as §1, §2, §3

Cc1cccc(Oc2ncc(Cl)cn2)c1OS(=O)(=O)CCCCl [Example I-11]
Post-emergence efficacy against SETVI in % (Setaria viridis (SETVI) [1]): 100% | Post-emergence efficacy against LOLRI in % (Lolium rigidum (LOLRI) [2]): 90% | Pre-emergence efficacy against SETVI (Setaria viridis (SETVI) [3]; 80 g/ha): 90% | Pre-emergence efficacy against SETVI (Setaria viridis (SETVI) [3]; 320 g/ha): 100% | Post-emergence efficacy against VERPE in % (Veronica persica (VERPE) [4]; application rate 80 g/ha): 100% | Post-emergence efficacy against VERPE in % (Veronica persica (VERPE) [4]; application rate 320 g/ha): 100% | Post-emergence efficacy against VIOTR in % (Viola tricolor (VIOTR) [5]; application rate 80 g/ha): 90% | Post-emergence efficacy against VIOTR in % (Viola tricolor (VIOTR) [5]; application rate 320 g/ha): 100% | Post-emergence efficacy against ZEAMX in % (Zea mays (ZEAMX) [6]): 20% | Pre-emergence efficacy against ALOMY [7]: 90% | Post-emergence efficacy against ECHCG in % ([8]; application rate 80 g/ha): 90% | Post-emergence efficacy against ECHCG in % ([8]; application rate 320 g/ha): 90% | Pre-emergence efficacy against ECHCG ([9]; 80 g/ha): 90% | Pre-emergence efficacy against ECHCG ([9]; 320 g/ha): 100% | Pre-emergence efficacy against AMARE ([10]; 80 g/ha): 100% | Pre-emergence efficacy against AMARE ([10]; 320 g/ha): 100% | Post-emergence efficacy against AMARE in % ([11]; application rate 80 g/ha): 90% | Post-emergence efficacy against AMARE in % ([11]; application rate 320 g/ha): 100% | Post-emergence efficacy against ALOMY in % [12]: 90% | Pre-emergence efficacy against ORYSA in % (Oryza sativa (ORYSA)): 20% | Pre-emergence efficacy against VERPE (Veronica persica (VERPE) [13]; 80 g/ha): 100% | Pre-emergence efficacy against VERPE (Veronica persica (VERPE) [13]; 320 g/ha): 100% | Post-emergence efficacy against TRZAS in % [14]: 20% | Pre-emergence efficacy against AVEFA (Avena fatua (AVEFA)): 90% | Pre-emergence efficacy against MATIN [15]: 80% | Pre-emergence efficacy against ABUTH ([16]; 80 g/ha): 90% | Pre-emergence efficacy against ABUTH ([16]; 320 g/ha): 90% | Pre-emergence efficacy against GLXMA in % (Glycine max (GLXMA); application rate 80 g/ha): 20% | Pre-emergence efficacy against POLCO ([17]; 80 g/ha): 80% | Pre-emergence efficacy against POLCO ([17]; 320 g/ha): 80% | Post-emergence efficacy against ABUTH in % ([18]; application rate 80 g/ha): 80% | Post-emergence efficacy against ABUTH in % ([18]; application rate 320 g/ha): 90% | Pre-emergence efficacy against LOLRI (Lolium rigidum (LOLRI) [19]): 80% | Pre-emergence efficacy against VIOTR in % (Viola tricolor (VIOTR) [20]; application rate 80 g/ha): 100% | Pre-emergence efficacy against VIOTR in % (Viola tricolor (VIOTR) [20]; application rate 320 g/ha): 100% | Post-emergence efficacy against POLCO in % [21]: 100%

O=S(=O)(CC=C(Cl)Cl)Oc1c(F)cccc1Oc1ncc(Cl)cn1 [Example I-85]
Pre-emergence efficacy against BRSNW in % (Brassica napus (BRSNW); application rate 80 g/ha): 0% | Pre-emergence efficacy against BRSNW in % (Brassica napus (BRSNW); application rate 320 g/ha): 0% | Pre-emergence efficacy against SETVI (Setaria viridis (SETVI) [3]; 320 g/ha): 90% | Post-emergence efficacy against VERPE in % (Veronica persica (VERPE) [4]; application rate 80 g/ha): 100% | Post-emergence efficacy against VERPE in % (Veronica persica (VERPE) [4]; application rate 320 g/ha): 100% | Pre-emergence efficacy against KCHSC in % (Kochia scoparia (KCHSC) [22]): 100% | Pre-emergence efficacy against ZEAMX in % (Zea mays (ZEAMX) [23]): 0% | Pre-emergence efficacy against DIGSA [24]: 100% | Post-emergence efficacy against KCHSC in % (Kochia scoparia (KCHSC) [25]; application rate 80 g/ha): 80% | Post-emergence efficacy against KCHSC in % (Kochia scoparia (KCHSC) [25]; application rate 320 g/ha): 100% | Pre-emergence efficacy against AMARE ([10]; 80 g/ha): 100% | Pre-emergence efficacy against AMARE ([10]; 320 g/ha): 100% | Post-emergence efficacy against AMARE in % ([11]; application rate 80 g/ha): 90% | Post-emergence efficacy against AMARE in % ([11]; application rate 320 g/ha): 100% | Post-emergence efficacy against TRZAS in % [14]: 0% | Pre-emergence efficacy against MATIN [15]: 80% | Pre-emergence efficacy against TRZAS in % ([26]; application rate 80 g/ha): 0% | Pre-emergence efficacy against TRZAS in % ([26]; application rate 320 g/ha): 10% | Pre-emergence efficacy against GLXMA in % (Glycine max (GLXMA); application rate 80 g/ha): 0% | Pre-emergence efficacy against GLXMA in % (Glycine max (GLXMA); application rate 320 g/ha): 0% | Post-emergence efficacy against ABUTH in % ([18]; application rate 320 g/ha): 80% | Pre-emergence efficacy against VIOTR in % (Viola tricolor (VIOTR) [20]; application rate 320 g/ha): 80% | Post-emergence efficacy against PHBPU in % [27]: 90%
